Reference: patent US20220195384A1, “COMPOSITION FOR PROMOTING PRODUCTION OF STEM CELL-DERIVED EXOSOMES AND INCREASING STEMNESS” (BREXOGEN INC., priority 2019, published 2022)
Where no end group is shown, it is not given here.

How the values were obtained:
Type in all cases: cell-based
[1] = test system: primary umbilical cord-derived mesenchymal stem cells; experiment: Content of exosomal protein (Bradford analysis, 595 nm); settings: for Exosomal protein, yield per 10^6 cells: then 72 h exosome-free FBS medium
Procedure: (§1) In a culture medium [high glucose DMEM (Gibco, Cat no. 11995-065); 10% fetal bovine serum (HyClone), 1% MEM non-essential amino acids solution (100×) (Gibco, Cat no. 11140-050)] containing 20 nM of exendin-4, primary umbilical cord-derived mesenchymal stem cells (ATCC No. PCS-500-010; Lot No. 63822428) were cultured for one week.
(§2) After completion of culturing, the mesenchymal stem cells pretreated with exendin-4 were washed and additionally cultured for 72 hours in a culture medium supplemented with 10% fetal bovine serum (FBS) free of exosomes. The reason of employing exosome-free FBS was to prevent FBS-derived exosomes other than those secreted from the cells from being incorporated because generally used FBS contained a large amount of exosomes derived from bovine serum.
(§3) After 72 hours of culturing, the culture medium in which the pretreated mesenchymal stem cells were cultured was taken and centrifuged at 300×g for 10 min to remove residual cells and cell debris. The supernatant was filtered through a 0.22 μm filter, followed by centrifugation at 10,000×g and 4° C. for 70 min in a high-speed centrifuge. The supernatant thus obtained was subjected again to ultracentrifugation at 100,000×g and 4° C. for 90 min. The exosomes obtained as a pellet were diluted in PBS (phosphate buffered saline) before use in the following experiments.
(§4) In a culture medium [high glucose DMEM (Gibco, Cat no. 11995-065); 10% fetal bovine serum (HyClone), 1% MEM non-essential amino acids solution (100×) (Gibco, Cat no. 11140-050)] containing 10 nM of PMA, primary umbilical cord-derived mesenchymal stem cells (ATCC No. PCS-500-010; Lot No. 63822428) were cultured for one week.
(§5) After completion of culturing, the mesenchymal stem cells pretreated with PMA were washed and additionally cultured for 72 hours in a culture medium supplemented with 10% fetal bovine serum (FBS) free of exosomes. The reason of employing exosome-free FBS was to prevent FBS-derived exosomes other than those secreted from the cells from being incorporated because generally used FBS contained a large amount of exosomes derived from bovine serum.
(§6) In a culture medium [high glucose DMEM (Gibco, Cat no. 11995-065); 10% fetal bovine serum (HyClone), 1% MEM non-essential amino acids solution (100×) (Gibco, Cat no. 11140-050)] containing 10 ng/mL interferon-γ, primary umbilical cord-derived mesenchymal stem cells (ATCC No. PCS-500-010; Lot No. 63822428) were cultured for one week.
(§7) After completion of culturing, the mesenchymal stem cells pretreated with interferon-γ were washed and additionally cultured for 72 hours in a culture medium supplemented with 10% fetal bovine serum (FBS) free of exosomes. The reason of employing exosome-free FBS was to prevent FBS-derived exosomes other than those secreted from the cells from being incorporated because generally used FBS contained a large amount of exosomes derived from bovine serum.
(§8) In a culture medium [high glucose DMEM (Gibco, Cat no. 11995-065); 10% fetal bovine serum (HyClone), 1% MEM non-essential amino acids solution (100×) (Gibco, Cat no. 11140-050)] containing 10 μM of tetrandrine, primary umbilical cord-derived mesenchymal stem cells (ATCC No. PCS-500-010; Lot No. 63822428) were cultured for one week.
(§9) After completion of culturing, the mesenchymal stem cells pretreated with tetrandrine were washed and additionally cultured for 72 hours in a culture medium supplemented with 10% fetal bovine serum (FBS) free of exosomes. The reason of employing exosome-free FBS was to prevent FBS-derived exosomes other than those secreted from the cells from being incorporated because generally used FBS contained a large amount of exosomes derived from bovine serum. […]

[2] = test system: primary umbilical cord-derived mesenchymal stem cells; experiment: Content of exosomal RNA (NanoDrop); settings: for Exosomal RNA, yield per 10^6 cells: then 72 h exosome-free FBS medium
Procedure: as §1, §2, §3, §4, §5, §6, §7, §8, §9

[3] = test system: primary umbilical cord-derived mesenchymal stem cells; experiment: Stem cell proliferation (CCK, absorbance 450 nm) after pretreatment; settings: 24 h culture, CCK 4 h
Procedure: as §1, §4, §6, §8
(§10) In a culture medium [high glucose DMEM (Gibco, Cat no. 11995-065); 10% fetal bovine serum (HyClone), 1% MEM non-essential amino acids solution (100×) (Gibco, Cat no. 11140-050)] containing 10 μg/mL hyaluronic acid, primary umbilical cord-derived mesenchymal stem cells (ATCC No. PCS-500-010; Lot No. 63822428) were cultured for one week.
(§11) In a culture medium [high glucose DMEM (Gibco, Cat no. 11995-065); 10% fetal bovine serum (HyClone), 1% MEM non-essential amino acids solution (100×) (Gibco, Cat no. 11140-050)] containing 30 nM of substance P, primary umbilical cord-derived mesenchymal stem cells (ATCC No. PCS-500-010; Lot No. 63822428) were cultured for one week.
(§12) In a culture medium [high glucose DMEM (Gibco, Cat no. 11995-065); 10% fetal bovine serum (HyClone), 1% MEM non-essential amino acids solution (100×) (Gibco, Cat no. 11140-050)] containing 10 nM of resveratrol, primary umbilical cord-derived mesenchymal stem cells (ATCC No. PCS-500-010; Lot No. 63822428) were cultured for one week.
(§13) In a culture medium [high glucose DMEM (Gibco, Cat no. 11995-065); 10% fetal bovine serum (HyClone), 1% MEM non-essential amino acids solution (100×) (Gibco, Cat no. 11140-050)] containing 10 μM of lanifibranor, primary umbilical cord-derived mesenchymal stem cells (ATCC No. PCS-500-010; Lot No. 63822428) were cultured for one week.
(§14) Mesenchymal stem cells and the exendin-4-pretreated mesenchymal stem cells of the Example were each seeded at a density of 3,000 cells/well into 96-well plates containing 100 μL of a culture medium [high glucose DMEM (Gibco, Cat no. 11995-065), 10% fetal bovine serum (HyClone), 1% MEM non-essential amino acids solution (100×) (Gibco, Cat no. 11140-050)] per well and cultured for 24 hours in a CO2 incubator. Then, CCK solution (10 μL/well) was added, and incubation was continued for 4 hours in the CO2 incubator, followed by reading absorbance at a wavelength of 450 nm (420-480 nm) to determine proliferation.
as §14, with “PMA-pretreated” for “exendin-4-pretreated”, “proliferation. […]” for “proliferation.”

[4] = test system: primary umbilical cord-derived mesenchymal stem cells; experiment: Stem cell stemness: colony formation (CFU-F, crystal violet) after pretreatment; settings: for colonies formed (each 50 or more cells): 1,000 cells/dish, 21 days; for CFU-F increase: vs non-treated
Procedure: as §1, §4, §6, §8, §10, §11, §12, §13
Mesenchymal stem cells and the exendin-4-pretreated mesenchymal stem cells of the Example were each seeded at a density of 1,000 cells/dish into 100-mm cell culture dishes containing […] of a culture medium [high glucose DMEM (Gibco, Cat no. 11995-065), 10% fetal bovine serum (HyClone), 1% MEM non-essential amino acids solution (100×) (Gibco, Cat no. 11140-050)] per dish and cultured for 21 days. The cell-attached dishes were washed twice with PBS, followed by fixation with 95% methanol at room temperature for about 2 min. The fixed cells were washed three times with PBS and stained with 0.5% crystal violet [(sigma, C-3886, USA) […], methanol 100 ml] for 5 min. After water washing and drying at room temperature, colonies, each composed of 50 or more cells, were counted for comparison.
Mesenchymal stem cells and the PMA-pretreated mesenchymal stem cells of the Example were each seeded at a density of 1,000 cells/dish into 100-mm cell culture dishes containing […] of a culture medium [high glucose DMEM (Gibco, Cat no. 11995-065), 10% fetal bovine serum (HyClone), 1% MEM non-essential amino acids solution (100×) (Gibco, Cat no. 11140-050)] per dish and cultured for 21 days. The cell-attached dishes were washed twice with PBS, followed by fixation with 95% methanol at room temperature for about 2 min. […]

[5] = test system: primary umbilical cord-derived mesenchymal stem cells; experiment: Number of exosomes by nanoparticle tracking assay (NanoSight NS300); settings: for No. of exosome particles, yield per 10^6 cells: then 72 h exosome-free FBS medium
Procedure: as §1, §2, §3, §4, §5, §6, §7, §8, §9

[6] = 10 μM tetrandrine pretreatment one week
[7] = 10 μM lanifibranor pretreatment one week
[8] = 30 nM substance P pretreatment one week
[9] = 20 nM exendin-4 pretreatment one week

COc1ccc2cc1Oc1ccc(cc1)C[C@H]1c3cc(c(OC)cc3CCN1C)Oc1c(OC)c(OC)cc3c1[C@H](C2)N(C)CC3 [tetrandrine]
fold greater exosomal proteins than non-treated mesenchymal stem cells [1, 6]: about 4.5 fold | Exosomal protein, yield per 10^6 cells ([1]; 10 μM tetrandrine pretreatment one week, non-treated 2.0): 9.42 ug | fold greater exosomal RNA than non-treated mesenchymal stem cells [2, 6]: about 4.4 fold | Exosomal RNA, yield per 10^6 cells ([2]; 10 μM tetrandrine pretreatment one week, non-treated 31.0): 136.0 ng | increase in proliferation relative to non-treated mesenchymal stem cells [3, 6]: about 260% | proliferation ratio relative to non-treated mesenchymal stem cells (1) [3, 6]: 2.6 | colonies formed (each 50 or more cells) ([4]; 10 μM tetrandrine pretreatment one week, non-treated 28.7): 121.3 colonies | CFU-F increase [4, 6]: about 423% | fold more exosomes than non-treated mesenchymal stem cells [5, 6]: about 4.3 fold | No. of exosome particles, yield per 10^6 cells ([5]; 10 μM tetrandrine pretreatment one week, non-treated 2.3): 9.84 10^9

O=C(O)CCCc1cc2cc(Cl)ccc2n1S(=O)(=O)c1ccc2ncsc2c1 [lanifibranor]
fold greater exosomal proteins than non-treated mesenchymal stem cells [1, 7]: about 4.6 fold | Exosomal protein, yield per 10^6 cells ([1]; 10 μM lanifibranor pretreatment one week, non-treated 2.0): 9.2 ug | fold greater exosomal RNA than non-treated mesenchymal stem cells [2, 7]: about 4.1 fold | Exosomal RNA, yield per 10^6 cells ([2]; 10 μM lanifibranor pretreatment one week, non-treated 27.00): 110.34 ng | increase in proliferation relative to non-treated mesenchymal stem cells [3, 7]: about 181% | proliferation ratio relative to non-treated mesenchymal stem cells (1) [3, 7]: 1.81 | colonies formed (each 50 or more cells) ([4]; 10 μM lanifibranor pretreatment one week, non-treated 40): 56.7 colonies | CFU-F increase [4, 7]: about 142% | fold more exosomes than non-treated mesenchymal stem cells [5, 7]: about 4.95 fold | No. of exosome particles, yield per 10^6 cells ([5]; 10 μM lanifibranor pretreatment one week, non-treated 2.30): 11.4 10^9

substance P (RPKPQQFFGLM; not fully specified; ends and bridges not checked; UniProt P20366 58-68, looked up) [undecapeptide of the tachykinin neuropeptide family acting on NK1 receptor; SubsP MSC-Exo = exosomes of treated mesenchymal stem cells]
fold greater exosomal proteins than non-treated mesenchymal stem cells [1, 8]: about 5.2 fold | Exosomal protein, yield per 10^6 cells ([1]; 30 nM substance P pretreatment one week, non-treated 2.0): 10.37 ug | fold greater exosomal RNA than non-treated mesenchymal stem cells [2, 8]: about 4.9 fold | Exosomal RNA, yield per 10^6 cells ([2]; 30 nM substance P pretreatment one week, non-treated 31.0): 150.84 ng | increase in proliferation relative to non-treated mesenchymal stem cells [3, 8]: about 290% | proliferation ratio relative to non-treated mesenchymal stem cells (1) [3, 8]: 2.9 | colonies formed (each 50 or more cells) ([4]; 30 nM substance P pretreatment one week, non-treated 28.7): 116 colonies | CFU-F increase [4, 8]: about 404% | fold more exosomes than non-treated mesenchymal stem cells [5, 8]: about 4.3 fold | No. of exosome particles, yield per 10^6 cells ([5]; 30 nM substance P pretreatment one week, non-treated 2.3): 9.93 10^9

exendin-4
fold greater exosomal proteins than non-treated mesenchymal stem cells [1, 9]: about 5.4 fold | Exosomal protein, yield per 10^6 cells ([1]; 20 nM exendin-4 pretreatment one week, non-treated 2.00): 10.69 μg | fold greater exosomal RNA than non-treated mesenchymal stem cells [2, 9]: about 5.6 fold | Exosomal RNA, yield per 10^6 cells ([2]; 20 nM exendin-4 pretreatment one week, non-treated 31.00): 174.34 ng | increase in proliferation relative to non-treated mesenchymal stem cells [3, 9]: about 340% | proliferation ratio relative to non-treated mesenchymal stem cells (1) [3, 9]: 3.4 | colonies formed (each 50 or more cells) ([4]; 20 nM exendin-4 pretreatment one week, non-treated 28.6): 185 colonies | CFU-F increase [4, 9]: about 647% | fold more exosomes than non-treated mesenchymal stem cells [5, 9]: about 5.85 fold | No. of exosome particles, yield per 10^6 cells ([5]; 20 nM exendin-4 pretreatment one week, non-treated 2.30): 13.45 10^9
